Measured values from US9822115B2, “Nitrogen containing compounds and their use as antibacterial agents” (WOCKHARDT LIMITED, priority 2014, dated 2017).
Converted amounts (≈) assume the structure as drawn. Read-outs that look alike come from different tables or passages of the source.

What was measured:
[1] = test system: T1, Class C beta-lactamase, E. coli M50 (CMY/DHA); type: biochemical; settings: read-out: Beta-lactamase enzyme inhibition IC50
T1 construct: no borders, tags or purification printed
Procedure: (§1) Determination of enzyme inhibition activity: Concentration of the inhibitor required to inhibit 50% of enzymatic activity was measured by adding a chromogenic substrate, Nitrocefin (100 uM, 5 min) to the preincubated mixture of crude enzyme and the agents (37° C., 10 min). Absorbance was measured at 485 nm by UV-spectrophotometer. The IC50 was calculated by plotting absorbance against concentration through Sigmoidal dose response curve using Graph Pad software.
(§2) The enzyme inhibition was expressed as IC50.

[2] = test system: E. coli NCTC 13353 (CTX-M15, OXA-1); test: Antibacterial activity, MIC by agar dilution (CLSI); type: cell-based
Procedure: (§3) The biological activity of representative compounds according to the invention against various bacterial strains was investigated. In a typical study, overnight grown bacterial cultures were diluted appropriately and inoculated on the agar media containing doubling dilutions of the test compounds. Observations for growth or no growth was performed after 16-20 hours of incubation at 35±2° C. in the ambient air. The overall procedure was performed as per Clinical and Laboratory Standards Institute (CLSI) recommendations, (Clinical and Laboratory Standards Institute (CLSI), Performance Standards for Antimicrobial Susceptibility Testing, 20th Informational Supplement, M07-A9, Volume 32, No. 2, 2012). Molten Mueller Hinton Agar (BD, USA) containing serial dilutions of each antibacterial agent were poured on to the plates and allowed to solidify. Appropriate suspensions from the freshly grown cultures were prepared in normal saline so that about 10^4 CFU/spot of the organism was delivered on to the drug containing agar plates using automated multipoint inoculator (Mast, UK). The plates were incubated in Biochemical oxygen demand (BOD) incubator at 37° C. for 18 hours and then examined for growth.
Table 2 details the antibacterial activity of representative compounds according to invention, against various Multi Drug Resistant (MDR) Gram-negative bacterial strains. The strains selected for study included E. coli NCTC 13353 producing CTX-M15 and OXA-1 beta-lactamase enzymes; K. pneumoniae H521 producing KPC, SHV, TEM beta-lactamase enzymes; and K. pneumoniae S48 producing NDM, SHV, TEM beta-lactamase enzymes. The activities are expressed as Minimum Inhibitory Concentrations (MICs) (mcg/ml).

[3] = test system: K. pneumoniae H521 (KPC, SHV, TEM); test: as above; type: cell-based
Procedure: as §3
(§4) The strains selected for study included E. coli NCTC 13353 producing CTX-M15 and OXA-1 beta-lactamase enzymes; K. pneumoniae H521 producing KPC, SHV, TEM beta-lactamase enzymes; and K. pneumoniae S48 producing NDM, SHV, TEM beta-lactamase enzymes. The activities are expressed as Minimum Inhibitory Concentrations (MICs) (mcg/ml).

[4] = test system: K. pneomoniae S48 (NDM, SHV, TEM); test: as above; type: cell-based, K. pneumoniae
Procedure: as §3, §4

[5] = target: T2, Class A beta-lactamase, K. pneumoniae ATCC 700603 (SHV 18) (Klebsiella pneumoniae, UniProt P0AD64, E235K/G234A/R39S); test: biochemical
T2 construct: preincubated mixture of crude enzyme and the agents; endogenous in cells; host or cells: K. pneumoniae ATCC 700603
T2 sequence (P0AD64 22-286 R39S/G234A/E235K): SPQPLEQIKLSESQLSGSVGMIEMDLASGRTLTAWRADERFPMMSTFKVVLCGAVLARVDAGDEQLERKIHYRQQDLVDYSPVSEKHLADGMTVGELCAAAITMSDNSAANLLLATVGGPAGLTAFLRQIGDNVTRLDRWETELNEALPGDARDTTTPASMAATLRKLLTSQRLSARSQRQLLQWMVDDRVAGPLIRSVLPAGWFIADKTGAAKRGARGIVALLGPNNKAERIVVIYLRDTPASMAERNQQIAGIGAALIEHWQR
Procedure: as §1, §2

[6] = target: T3, Class D beta-lactamase, A. baumannii NCTC 13301 (OXA 23) (Acinetobacter baumannii, UniProt Q9L4P2); test: Beta-lactamase enzyme inhibition (nitrocefin, crude enzyme); type: biochemical; settings: Class D A. baumannii NCTC 13301 (OXA 23); read-out: Beta-lactamase enzyme inhibition IC50
T3 construct: preincubated mixture of crude enzyme and the agents; endogenous in cells; host or cells: A. baumannii NCTC 13301
T3 sequence (Q9L4P2 18-273): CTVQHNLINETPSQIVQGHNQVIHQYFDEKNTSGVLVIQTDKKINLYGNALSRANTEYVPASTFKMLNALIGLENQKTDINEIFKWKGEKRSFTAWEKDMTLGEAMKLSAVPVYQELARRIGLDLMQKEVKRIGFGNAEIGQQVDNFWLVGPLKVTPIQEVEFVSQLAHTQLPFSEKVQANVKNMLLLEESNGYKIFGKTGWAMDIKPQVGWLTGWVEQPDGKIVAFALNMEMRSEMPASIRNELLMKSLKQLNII
Procedure: as §1, §2

[7] = Escherichia coli, NCTC13353, Table 2, E. Coli NCTC 13353 (CTX-M15, OXA-1), read-out: MIC
[8] = Klebsiella pneumoniae, Table 2, K. pneumoniae H521 (KPC, SHV, TEM), read-out: MIC
[9] = Klebsiella pneumoniae, Table 2, K. pneomoniae S48 (NDM, SHV, TEM), read-out: MIC
[10] = Escherichia coli, NCTC13353, 18 h, Table 2, E. Coli NCTC 13353 (CTX-M15, OXA-1), read-out: MIC
[11] = Klebsiella pneumoniae, 18 h, Table 2, K. pneumoniae H521 (KPC, SHV, TEM), read-out: MIC
[12] = Klebsiella pneumoniae, 18 h, Table 2, K. pneomoniae S48 (NDM, SHV, TEM), read-out: MIC
[13] = Table 2, E. Coli NCTC 13353 (CTX-M15, OXA-1)
[14] = Table 2, K. pneomoniae S48 (NDM, SHV, TEM)

Compound	IC50 [1] [µM]	MIC ([2]; Escherichia coli, NCTC13353) [µg/mL]	MIC ([3]; Klebsiella pneumoniae) [µg/mL]	MIC ([4]; Klebsiella pneumoniae) [µg/mL]	IC50 [5] [µM]	IC50 [6] [µM]	MIC [2, 7] [µg/mL]	MIC [3, 8] [µg/mL]	MIC [4, 9] [µg/mL]	MIC [2, 10] [µg/mL]	MIC [3, 11] [µg/mL]	MIC [4, 12] [µg/mL]	MIC [2, 13] [µg/mL]	MIC [4, 14] [µg/mL]	MIC ([3]; Table 2, K. pneumoniae H521 (KPC, SHV, TEM)) [µg/mL]
O=C(O)[C@H]1/C(=C/CO)O[C@@H]2CC(=O)N21 [Clavulanic acid, clavulanic acid, reference compound]	> 10														
Nc1ccc(CC(=O)NNC(=O)[C@@H]2CC[C@@H]3CN2C(=O)N3OS(=O)(=O)O)cc1 [Example 11, (2S,5R)-sulfuric acid mono-[2-(N′-(4-aminophenyl-acetyl)-hydrazinocarbonyl)-7-oxo-1,6-diaza-bicyclo[3.2.1]oct-6-yl]ester]	0.01	0.5 (≈ 1.21 µM)	1 (≈ 2.42 µM)	1 (≈ 2.42 µM)	0.032	0.408									
Nc1ccc(CC(=O)NNC(=O)[C@@H]2CC[C@@H]3CN2C(=O)N3OS(=O)(=O)O)c(F)c1 [Example 17, (2S,5R)-sulfuric acid mono-[2-(N′-(4-amino-2-fluorophenyl-acetyl)-hydrazinocarbonyl)-7-oxo-1,6-diaza-bicyclo[3.2.1]oct-6-yl]ester]	0.014					0.194	1 (≈ 2.32 µM)	4 (≈ 9.27 µM)	1 (≈ 2.32 µM)						
Nc1ccccc1CC(=O)NNC(=O)[C@@H]1CC[C@@H]2CN1C(=O)N2OS(=O)(=O)O [Example 21, (2S,5R)-sulfuric acid mono-[2-(N′-(2-aminophenyl-acetyl)-hydrazinocarbonyl)-7-oxo-1,6-diaza-bicyclo[3.2.1]oct-6-yl]ester]	0.034	16 (≈ 38.7 µM)	16 (≈ 38.7 µM)	16 (≈ 38.7 µM)	0.035	4.51									
C[C@H](N)C(=O)Oc1ccc(CC(=O)NNC(=O)[C@@H]2CC[C@@H]3CN2C(=O)N3OS(=O)(=O)O)cc1 [Example 23, (S)-2-amino-propionic acid 4-{2-oxo-2-[N′-((2S,5R)-7-oxo-6-sulphooxy-1,6-diaza-bicyclo[3.2.1]octane-2-carbonyl)-hydrazino]ethyl}-phenyl ester]	0.023				0.003	0.24	0.5 (≈ 1.03 µM)	2 (≈ 4.12 µM)	0.5 (≈ 1.03 µM)						
CC(C)[C@H](N)C(=O)Oc1ccc(CC(=O)NNC(=O)[C@@H]2CC[C@@H]3CN2C(=O)N3OS(=O)(=O)O)cc1 [Example 24, (S)-2-amino-3-methyl-butyric acid 4-{2-oxo-2-[N′-((2S,5R)-7-oxo-6-sulphooxy-1,6-diaza-bicyclo[3.2.1]octane-2-carbonyl)-hydrazino]ethyl}-phenyl ester]	0.005				0.002	0.151	1 (≈ 1.95 µM)	4 (≈ 7.79 µM)	0.5 (≈ 0.974 µM)						
O=C(Cc1ccc(OC(=O)[C@@H]2CCCN2)cc1)NNC(=O)[C@@H]1CC[C@@H]2CN1C(=O)N2OS(=O)(=O)O [Example 25, (S)-pyrrolidine-2-carboxylic acid 4-{2-oxo-2-[N′-((2S,5R)-7-oxo-6-sulphooxy-1,6-diaza-bicyclo[3.2.1]octane-2-carbonyl)-hydrazino]ethyl}-phenyl ester]	0.011				0.016	0.329	0.5 (≈ 0.977 µM)	1 (≈ 1.95 µM)	1 (≈ 1.95 µM)						
NCCOc1ccc(CC(=O)NNC(=O)[C@@H]2CC[C@@H]3CN2C(=O)N3OS(=O)(=O)O)cc1 [Example 30, (2S,5R)-sulfuric acid mono-[2-(N′-{2-[4-(2-amino-ethoxy)-phenyl]-acetyl}-hydrazinocarbonyl)-7-oxo-1,6-diaza-bicyclo[3.2.1]oct-6-yl]ester]	0.036				0.007	0.451	0.5 (≈ 1.09 µM)	2 (≈ 4.37 µM)	0.5 (≈ 1.09 µM)						
NCCOc1cccc(CC(=O)NNC(=O)[C@@H]2CC[C@@H]3CN2C(=O)N3OS(=O)(=O)O)c1 [Example 32, (2S,5R)-sulfuric acid mono-[2-(N′-{2-[3-(2-amino-ethoxy)-phenyl]-acetyl}-hydrazinocarbonyl)-7-oxo-1,6-diaza-bicyclo[3.2.1]oct-6-yl]ester]	0.033				0.076	1.77	0.5 (≈ 1.09 µM)	0.5 (≈ 1.09 µM)	0.5 (≈ 1.09 µM)						
NCCCOc1ccccc1CC(=O)NNC(=O)[C@@H]1CC[C@@H]2CN1C(=O)N2OS(=O)(=O)O [Example 34, (2S,5R)-sulfuric acid mono-[2-(N′-{2-[2-(3-amino-propoxy)-phenyl]-acetyl}-hydrazinocarbonyl)-7-oxo-1,6-diaza-bicyclo[3.2.1]oct-6-yl]ester]	0.06				0.079	3.81	2 (≈ 4.24 µM)	2 (≈ 4.24 µM)	2 (≈ 4.24 µM)						
NCCCOc1cccc(CC(=O)NNC(=O)[C@@H]2CC[C@@H]3CN2C(=O)N3OS(=O)(=O)O)c1 [Example 35, (2S,5R)-sulfuric acid mono-[2-(N′-{2-[3-(3-amino-propoxy)-phenyl]-acetyl}-hydrazinocarbonyl)-7-oxo-1,6-diaza-bicyclo[3.2.1]oct-6-yl]ester]	0.038				0.712	1.91	0.5 (≈ 1.06 µM)	1 (≈ 2.12 µM)	0.5 (≈ 1.06 µM)						
CNCCOc1ccccc1CC(=O)NNC(=O)[C@@H]1CC[C@@H]2CN1C(=O)N2OS(=O)(=O)O [Example 36, (2S,5R)-sulfuric acid mono-[2-(N′-{2-[2-(2-N-methylamino-ethoxy)-phenyl]-acetyl}-hydrazinocarbonyl)-7-oxo-1,6-diaza-bicyclo[3.2.1]oct-6-yl]ester]					0.071	2.17				1 (≈ 2.12 µM)	2 (≈ 4.24 µM)	1 (≈ 2.12 µM)			
CNCCOc1cccc(CC(=O)NNC(=O)[C@@H]2CC[C@@H]3CN2C(=O)N3OS(=O)(=O)O)c1 [Example 37, (2S,5R)-sulfuric acid mono-[2-(N′-{2-[3-(2-N-methylamino-ethoxy)-phenyl]-acetyl}-hydrazinocarbonyl)-7-oxo-1,6-diaza-bicyclo[3.2.1]oct-6-yl]ester]					0.036	0.938				0.5 (≈ 1.06 µM)	1 (≈ 2.12 µM)	0.5 (≈ 1.06 µM)			
O=C(Cc1ccc(O[C@H]2CCNC2)cc1)NNC(=O)[C@@H]1CC[C@@H]2CN1C(=O)N2OS(=O)(=O)O [Example 64]					0.047	0.432	0.5 (≈ 1.03 µM)	1 (≈ 2.07 µM)	0.5 (≈ 1.03 µM)						
sodium salt of (2S,5R)-succinic acid tert-butyl ester 4-{2-oxo-2-[N′-(7-oxo-6-sulphooxy-1,6-diaza-bicyclo[3.2.1]octane-2-carbonyl)-hydrazino]ethyl}-phenyl ester [Example 27]	0.014					0.498							2	8	
sodium salt of (2S,5R)-sulfuric acid mono-[2-(N′-(3,3-diphenyl-propionyl)-hydrazinocarbonyl)-7-oxo-1,6-diaza-bicyclo[3.2.1]oct-6-yl]ester [Example 7]	0.014					0.089							>32	>32	>32
